Source: the supplement of paper PMC10883282
± gives the standard deviation of the averaged measurements.

Test system: A204
Experiment: relative viability vs DMSO control (72 h) (fraction); higher = more viable cells
How it was run: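 A 5 µM positive control and 0.1% DMSO vehicle ran alongside sarcoma cell lines seeded in 384-well plates to reach 80–90% confluence. Serially diluted compound, 2.5 µl from source plates of 10 mM to 0.0002 mM, was added after 24 h, and the plates were held 72 h at 37 °C, 5% CO2. Relative viability was worked out from ATPLite readings as percent growth averaged over up to triplicate wells. The values were rescaled so that 1 is full and 0 is none.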

SMILES | relative viability (0.00017 µM) | relative viability (0.00051 µM) | relative viability (0.00152 µM) | relative viability (0.00457 µM) | relative viability (0.01372 µM) | relative viability (0.04115 µM) | relative viability (0.1235 µM) | relative viability (0.3704 µM) | relative viability (1.111 µM) | relative viability (3.333 µM) | relative viability (10 µM)
C=CC(=O)Nc1cccc(Oc2nc(Nc3ccc(N4CCN(C)CC4)cc3)nc3ccsc23)c1 [Olmutinib] | 1.09 ± 0.028 | 1.05 ± 0.038 | 1.06 ± 0.019 | 1.06 ± 0.039 | 1.05 ± 0.031 | 1.05 ± 0.02 | 1.01 ± 0.03 | 1.03 ± 0.022 | 0.929 ± 0.054 | 0.568 ± 0.064 | 0.177 ± 0.031
COc1cc2c(Oc3ccc4[nH]c(C)cc4c3F)ncnc2cc1OCCCN1CCCC1 [Cediranib] | 1.086 ± 0.0095 | 1.06 ± 0.017 | 1.08 ± 0.064 | 1.09 ± 0.024 | 0.984 ± 0.051 | 0.882 ± 0.09 | 0.457 ± 0.0087 | 0.336 ± 0.0094 | 0.251 ± 0.027 | 0.182 ± 0.0051 | 0.00917 ± 0.0011
Cc1cnc(Nc2ccc(OCCN3CCCC3)cc2)nc1Nc1cccc(S(=O)(=O)NC(C)(C)C)c1 [Fedratinib] | 1.07 ± 0.066 | 1.07 ± 0.022 | 1.13 ± 0.041 | 1.08 ± 0.035 | 1.09 ± 0.017 | 1.02 ± 0.034 | 0.97 ± 0.035 | 0.712 ± 0.088 | 0.396 ± 0.056 | 0.13 ± 0.016 | 0.0146 ± 0.0016
CCCS(=O)(=O)Nc1ccc(F)c(C(=O)c2c[nH]c3ncc(-c4ccc(Cl)cc4)cc23)c1F [Vemurafenib] | 1.066 ± 0.009 | 1.09 ± 0.011 | 1.07 ± 0.067 | 1.09 ± 0.043 | 1.08 ± 0.047 | 1.07 ± 0.018 | 1.07 ± 0.038 | 1.11 ± 0.025 | 1.12 ± 0.027 | 1.02 ± 0.054 | 0.617 ± 0.029
Cn1cnc2c(F)c(Nc3ccc(Br)cc3F)c(C(=O)NOCCO)cc21 [Binimetinib] | 1.04 ± 0.031 | 1.06 ± 0.029 | 1.063 ± 0.0083 | 1.07 ± 0.019 | 1.04 ± 0.015 | 1.02 ± 0.043 | 1.02 ± 0.023 | 0.9365 ± 0.0019 | 0.922 ± 0.023 | 0.902 ± 0.038 | 0.713 ± 0.023
COc1c(OCCCN2CCOCC2)ccc2c1N=C(NC(=O)c1cnc(N)nc1)N1CCN=C21 [Copanlisib] | 1.05 ± 0.035 | 1.01 ± 0.07 | 0.927 ± 0.023 | 0.711 ± 0.055 | 0.583 ± 0.037 | 0.481 ± 0.049 | 0.399 ± 0.05 | 0.316 ± 0.027 | 0.268 ± 0.018 | 0.235 ± 0.019 | 0.211 ± 0.038
COc1cc2nccc(Oc3ccc(NC(=O)Nc4cc(C)on4)c(Cl)c3)c2cc1OC [Tivozanib] | 1.1 ± 0.05 | 1.07 ± 0.048 | 1.09 ± 0.032 | 1.08 ± 0.026 | 0.998 ± 0.063 | 0.712 ± 0.021 | 0.504 ± 0.038 | 0.438 ± 0.025 | 0.418 ± 0.029 | 0.348 ± 0.0075 | 0.228 ± 0.02
CC[C@H](Nc1ncnc2[nH]cnc12)c1nc2cccc(F)c2c(=O)n1-c1ccccc1 [Idelalisib] | 1.08 ± 0.023 | 1.1 ± 0.043 | 1.1 ± 0.032 | 1.1 ± 0.046 | 1.07 ± 0.081 | 1.06 ± 0.041 | 1.03 ± 0.023 | 1.02 ± 0.021 | 0.973 ± 0.067 | 0.835 ± 0.015 | 0.61 ± 0.033
Cc1cc(C)c(/C=C2\C(=O)Nc3ccccc32)[nH]1 [Semaxanib] | 1.02 ± 0.067 | 1.03 ± 0.021 | 0.964 ± 0.055 | 0.966 ± 0.067 | 0.977 ± 0.052 | 0.925 ± 0.075 | 0.883 ± 0.015 | 0.852 ± 0.032 | 0.823 ± 0.041 | 0.568 ± 0.043 | 0.33 ± 0.032
Cc1ccc(F)c(NC(=O)Nc2ccc(-c3cccc4[nH]nc(N)c34)cc2)c1 [Linifanib] | 1.07 ± 0.037 | 1.11 ± 0.047 | 1.08 ± 0.037 | 1.073 ± 0.0063 | 1.06 ± 0.02 | 0.973 ± 0.13 | 0.659 ± 0.03 | 0.469 ± 0.066 | 0.435 ± 0.034 | 0.414 ± 0.032 | 0.439 ± 0.01
COCc1c(-c2cc3cc(C)cc(OC)c3s2)c2c(N)ncnn2c1CN1CCNC(=O)C1 [Rogaratinib] | 1.09 ± 0.039 | 1.07 ± 0.069 | 1.09 ± 0.036 | 1.08 ± 0.019 | 1.05 ± 0.039 | 0.95 ± 0.058 | 0.827 ± 0.048 | 0.631 ± 0.043 | 0.548 ± 0.008 | 0.44 ± 0.014 | 0.268 ± 0.025
N#CC[C@H](C1CCCC1)n1cc(-c2ncnc3[nH]ccc23)cn1 [Ruxolitinib] | 1.02 ± 0.015 | 1.03 ± 0.018 | 1.02 ± 0.049 | 1.02 ± 0.027 | 1.01 ± 0.026 | 1.01 ± 0.005 | 1.008 ± 0.0097 | 0.983 ± 0.031 | 0.96 ± 0.083 | 0.789 ± 0.053 | 0.655 ± 0.05
CCN1CCN(Cc2ccc(Nc3ncc(F)c(-c4cc(F)c5nc(C)n(C(C)C)c5c4)n3)nc2)CC1 [Abemaciclib] | 1.05 ± 0.033 | 1.04 ± 0.035 | 1.04 ± 0.017 | 1.03 ± 0.034 | 0.976 ± 0.015 | 0.876 ± 0.027 | 0.77 ± 0.08 | 0.564 ± 0.023 | 0.417 ± 0.024 | 0.383 ± 0.031 | 0.333 ± 0.029
CNC(=O)c1cc(Oc2ccc(NC(=O)Nc3ccc(Cl)c(C(F)(F)F)c3)c(F)c2)ccn1 [Regorafenib] | 1.06 ± 0.046 | 1.07 ± 0.05 | 1.05 ± 0.067 | 1.08 ± 0.051 | 1.079 ± 0.0072 | 1.05 ± 0.032 | 0.987 ± 0.06 | 0.589 ± 0.033 | 0.434 ± 0.0088 | 0.305 ± 0.033 | 0.219 ± 0.0053
Nc1cc(C(F)(F)F)c(-c2cc(N3CCOCC3)nc(N3CCOCC3)n2)cn1 [Buparlisib] | 1.05 ± 0.023 | 1.03 ± 0.021 | 1.05 ± 0.032 | 1.02 ± 0.013 | 1.03 ± 0.065 | 1.01 ± 0.038 | 0.879 ± 0.021 | 0.673 ± 0.011 | 0.332 ± 0.066 | 0.174 ± 0.0058 | 0.155 ± 0.0086
CC(C)NC(=O)C1CCC(n2c(NC(=O)c3ccc(F)cc3)nc3ccc(CN4CCC(C(C)(C)O)CC4)cc32)CC1 (stereo not drawn) [Belizatinib] | 1.1 ± 0.019 | 1.11 ± 0.056 | 1.11 ± 0.034 | 1.08 ± 0.02 | 1.092 ± 0.0066 | 1.09 ± 0.044 | 1.08 ± 0.026 | 1.05 ± 0.029 | 0.984 ± 0.086 | 0.727 ± 0.019 | 0.361 ± 0.069
CC1(C)CNc2cc(NC(=O)c3cccnc3NCc3ccncc3)ccc21 [Motesanib] | 0.977 ± 0.038 | 1.01 ± 0.046 | 1.01 ± 0.037 | 0.995 ± 0.015 | 0.968 ± 0.025 | 0.895 ± 0.045 | 0.76 ± 0.059 | 0.524 ± 0.017 | 0.393 ± 0.0075 | 0.3783 ± 0.0025 | 0.312 ± 0.012
CC(=O)Nc1cccc(-n2c(=O)n(C3CC3)c(=O)c3c(Nc4ccc(I)cc4F)n(C)c(=O)c(C)c32)c1 [Trametinib] | 1.08 ± 0.084 | 1.08 ± 0.05 | 1.09 ± 0.034 | 1.08 ± 0.035 | 1.04 ± 0.047 | 0.977 ± 0.06 | 0.77 ± 0.071 | 0.576 ± 0.024 | 0.544 ± 0.022 | 0.536 ± 0.0082 | 0.491 ± 0.015
